Test results reported in patent US20260256741A1, “ANTICANCER MALEIMIDE DERIVATIVES FOR USE WITH IMMUNE CHECKPOINT BLOCKADE” (BROWN UNIVERSITY, priority 2022, published 2026).

Experiments:
NK-92 cells = experiment: 10x single-cell sequencing, NK-92; format: cell-based, human; settings: 1 μM, 24 hours vs DMSO
Description: Single cells were captured and 3′ single-cell gene expression libraries were conducted (Next GEM v3.1) using the 10× Genomics Chromium system by SingulOmics (SingulOmics, New York, NY, USA). Gene expression libraries were sequenced with ~200 million PE150 reads per sample on Illumina (RRID: SCR_016387) NovaSeq (Illumina, Inc., San Diego, CA, USA). After sequencing clean reads were then analyzed with human reference genome GRCh38 using Cell Ranger v6.1.2 ([RRID: SCR_017344],10× Genomics, Pleasanton, CA, USA). Data were analyzed and visualized using Loupe Browser ([RRID: SCR_018555], 10× Genomics, Pleasanton, CA, USA).

[1] = test system: CD45+ immune cell segments of tumor biopsies; experiment: GeoMx Digital Spatial Profiling of patient tumor biopsies; format: in vivo, human; settings: post- vs pre-treatment
Text: An Agilent technologies hybridization oven was used for baking tissue onto slides (Agilent, Santa Clara, CA, USA). A NanoString GeoMx® Digital Spatial Profiler (DSP) instrument (NanoString, Seattle, WA, USA) was used to scan slides, identify regions of interest (ROIs), and collect photocleavable barcodes according to manufacturer instructions. A custom panel was designed to include the following proteins: Ms IgG1, Ms IgG2a, Rb IgG, GAPDH, Histone H3, S6, Beta-2-microglobulin, CD31, CD45, Ki-67, ARG1, CD11b, CD11c, CD14, CD163, CD39, CD40, CD68, HLA-DR, GZMB, CD20, CD3, CD34, CD4, CD56, CD66b, CD8, Foxp3, Fibronectin, 4-1BB, B7-H3, CTLA4, GITR, IDO1, LAG3, OX40L, STING, Tim-3, VISTA, Bcl-2, ER-α, EpCAM, Her2, MART1, NY-ESO-1, PR, PTEN, PanCk, SMA, CD127, CD25, CD27, CD44, CD45RO, CD80, ICOS, PD-1, PD-L1, and PD-L2. An Eppendorf MasterCycler Gradient Thermal Cycler was used to generate the Illumina sequencing libraries from the photocleaved tags. (Eppendorf, Hamburg, Germany). An Agilent Fragment Analyzer (RRID: SCR_019417) was used for library size distribution analysis with a high-sensitivity NGS Fragment Kit (Cat #DNF-474-0500, Agilent, Santa Clara, CA, USA). qPCR for quantification was run using an Illumina-compatible KAPA Library Quantification Kits (ROX Low) (cat #KK4873) on an Applied Biosystems ViiA 7 Real-Time qPCR/PCR Thermal Cycler System (Applied Biosystems, San Francisco, CA, USA) and was analyzed using QuantStudio software (RRID: SCR_018712). Sequencing was performed using a NextSeq 500/550 High Output Kit v2.5 (75 Cycles) kit (cat #20024906) on an Illumina Sequencing NextSeq 550 System ([RRID: SCR_016381], Illumina, San Diego, CA, USA). The initial annotated dataset went through quality control (QC) to check if housekeeper genes and background (isotype) control molecules were themselves correlated with the predictors of interest. Every ROT was tested for raw sequencing reads (segments with <1000 raw reads were removed), % sequencing saturation (defined as [1-deduplicated reads/aligned reads]%, segments below ~50% were not analyzed), and nuclei count per segment (>100 nuclei per segment is generally recommended). Both immunoglobulins (IgGs) and housekeeper genes were highly correlated with one another. Signal to noise (SNR) ratio was calculated using background probes and all probes were detected above the background in at least one ROI. Finally, data were normalized based on background IgG expression and all normalization factors were well distributed. Data analysis and visualization were generated using R ([RRID: SCR_001905], R Development Core Team, 2020). Archival tumor specimens and peripheral blood samples were collected from patients enrolled in the Phase I study of Elraglusib (9-ING-41), a small molecule selective glycogen synthase kinase-3 beta (GSK-3b) inhibitor, as monotherapy or combined with cytotoxic regimens in patients with relapsed or refractory hematologic malignancies or solid tumors (Clinicaltrials.gov NCT03678883) who received treatment at the Lifespan Cancer Institute (Providence, RI, USA). The study was conducted in accordance with the Declaration of Helsinki and the International Conference on Harmonization Good Clinical Practice guidelines. The study protocol was approved by the Institutional Review Board (IRB) of Rhode Island Hospital under protocol number 1324888-120. The patients also participated in a Lifespan Cancer Institute research protocol designed to investigate molecular and genetic features of tumors and mechanisms of resistance (Rhode Island Hospital IRB protocol number 449060-38). All patients provided written informed consent.

[2] = tumor-infiltrating CD45+ segments, p=0.012
[3] = tumor-infiltrating CD45+ segments, p=1.6E-3
[4] = tumor-infiltrating CD45+ segments, p=3.1E-5

For Cn1cc(C2=C(c3coc4ccc(F)cc34)C(=O)NC2=O)c2cc3c(cc21)OCO3 [elraglusib, 3-(5-fluorobenzofuran-3-yl)-4-(5-methyl-5H-[1,3]dioxolo[4,5-f]indol-7-yl)-1H-pyrrole-2,5-dione], the “immune cell activation marker CD69 expression” value (NK-92 cells) was “increase”, the “immune cell attractant CCL4 expression” value (NK-92 cells) was “increase” and the “immunosuppressive marker CHI3L1 expression” value (NK-92 cells) was “decrease”. For the same molecule, the CD40 protein expression ([1]; CD45+ regions, all samples, p=0.020) was “decreased protein expression”, the CD11c protein expression ([1]; CD45+ regions, all samples, p=0.022) was “decreased protein expression” and the PD-L2 protein expression ([1]; CD45+ regions, all samples, p=2.0E-9) was “decreased protein expression”. For the same molecule, the VISTA protein expression ([1]; CD45+ regions, all samples, p=2.0E-24) was “decreased protein expression”, the PD-L1 protein expression ([1]; CD45+ regions, all samples, p=3.2E-13) was “decreased protein expression” and the CD68 protein expression ([1]; CD45+ regions, all samples, p=3.8E-4) was “decreased protein expression”. The IDO1 protein expression ([1]; CD45+ regions, all samples, p=4.8E-6) was “decreased protein expression”, the LAG3 protein expression ([1]; CD45+ regions, all samples, p=5.1E-4) was “decreased protein expression” and the CD80 protein expression ([1]; CD45+ regions, all samples, p=5.4E-6) was “decreased protein expression”. The PD-1 protein expression ([1]; CD45+ regions, all samples, p=5.6E-9) was “decreased protein expression”, the CD11b protein expression ([1]; CD45+ regions, all samples, p=6.7E-3) was “decreased protein expression” and the CD66b protein expression ([1]; CD45+ regions, all samples, p=7.5E-15) was “decreased protein expression”. For the same molecule, the B7-H3 protein expression [1, 2] was “higher protein expression”, the CD127 protein expression [1, 2] was “higher protein expression” and the GITR protein expression ([1]; tumor-infiltrating CD45+ segments, p=0.021) was “lower protein expression”. The CD45RO protein expression ([1]; tumor-infiltrating CD45+ segments, p=1.1E-4) was “lower protein expression”, the PD-L1 protein expression ([1]; tumor-infiltrating CD45+ segments, p=1.1E-6) was “lower protein expression” and the CD66b protein expression ([1]; tumor-infiltrating CD45+ segments, p=1.4E-13) was “lower protein expression”. For the same molecule, the PTEN protein expression ([1]; tumor-infiltrating CD45+ segments, p=1.5E-11) was “lower protein expression”, the OX40L protein expression [1, 3] was “higher protein expression” and the PD-1 protein expression [1, 3] was “lower protein expression”. The VISTA protein expression ([1]; tumor-infiltrating CD45+ segments, p=1.6E-14) was “lower protein expression”, the CD80 protein expression ([1]; tumor-infiltrating CD45+ segments, p=2.4E-3) was “lower protein expression” and the B2M protein expression ([1]; tumor-infiltrating CD45+ segments, p=2.5E-6) was “lower protein expression”. The Ki-67 protein expression ([1]; tumor-infiltrating CD45+ segments, p=2.7E-4) was “lower protein expression”, the CTLA4 protein expression [1, 4] was “higher protein expression” and the HLA-DR protein expression [1, 4] was “lower protein expression”. For the same molecule, the CD44 protein expression ([1]; tumor-infiltrating CD45+ segments, p=3.1E-7) was “lower protein expression”, the CD34 protein expression ([1]; tumor-infiltrating CD45+ segments, p=3.3E-9) was “lower protein expression” and the CD68 protein expression ([1]; tumor-infiltrating CD45+ segments, p=5.8E-4) was “lower protein expression”. For the same molecule, the IDO1 protein expression ([1]; tumor-infiltrating CD45+ segments, p=6.6E-4) was “lower protein expression”, the CD56 protein expression ([1]; tumor-infiltrating CD45+ segments, p=6.9E-3) was “lower protein expression” and the PD-L2 protein expression ([1]; tumor-infiltrating CD45+ segments, p=7.6E-4) was “lower protein expression”. For the same molecule, the ARG1 protein expression ([1]; tumor-infiltrating CD45+ segments, p=7.6E-5) was “lower protein expression” and the CD11c protein expression ([1]; tumor-infiltrating CD45+ segments, p=9.5E-3) was “lower protein expression”.
